The values that follow are results of earlier work, collected in patent US10011570B2, “Nucleic acid binding dyes with improved safety” (Biotium, Inc., priority 2013, dated 2018).

The test system of the data set is cellular mutation caused by UV light or other known mutagens. As to conditions: cited from earlier work.

As for `CCCN(CCCN(C)C)c1cc(/C=C2/Sc3ccccc3N2C)c2ccccc2[n+]1-c1ccccc1` [SYBR Green], the “effect on cellular mutation caused by UV light or other known mutagens” value is reported as “can worsen cellular mutation” and the “power in worsening mutation relative to ethidium bromide” value is given as around 100 times.
